Experimental data reported in patent US20110251379A1, “COMPOUNDS USEFUL FOR TREATING NEURODEGENERATIVE DISORDERS” (Satori Pharmaceuticals, Inc., priority 2010, published 2011).

System: amyloid-beta (1-42) peptide
Experiment: ELISA assay of amyloid-beta (1-42) in conditioned media of 2B7 cells
Format: cell-based
Details: for IC50: 5 h, Aβ-42, 2B7 cells, 5 hours, read-out: IC50 range
Protocol: Compounds of the present invention, and extracts comprising said compounds, may be assayed as inhibitors of amyloid-beta (1-42) peptide in vitro or in vivo. Such assay methods are described in detail in U.S. Pat. No. 6,649,196, the entirety of which is hereby incorporated herein by reference.
In certain embodiments, provided compounds of the present invention, and extracts comprising said compounds, were assayed as inhibitors of amyloid-beta (1-42) peptide in vitro using an ELISA assay.
Capture Plate Prep: • 6E10 was diluted to 5.0 ug/mL in 100 mM NaHCO3 pH 8.2 (10 ug aliquot per 2 mL buffer); • 100 uL capture antibody solution was added to wells of 96 well plate; • Incubated overnight at 4° C. sealed; • Aspirated off capture antibody; and • Blocked with 250 uL of Blocking Buffer for 2-4 hours at rt sealed.
Conditioned Media: • Cultured 2B7 cells in 96 well plate with 250 uL of media per well until confluent; • Prepared serial dilution of compounds in DMSO at 100× the final desired concentration; • Washed wells with 2B7 cells lx with 250 uL of media; • Diluted DMSO stocks 1:100 into media and mix; and • Added 250 μL of media containing compounds (1% DMSO) to wells with 2B7 cells for 5 hours at 37° C.
Elisa Sample Prep: • Diluted conditioned media 1:2 into blocking buffer; • NOTE: If assaying for A-Beta 1-40 or total A-Beta, then diluted above sample 1:10 with a 50/50 mixture of non-conditioned media containing 1% DMSO and blocking buffer.
Standard Curve Sample Prep: • Diluted appropriate A-Beta peptide stock (stored in 1% NH4OH) to 200 μg/mL in blocking buffer; • Prepared a 1:2 serial dilution from the 200 μg/mL sample (150 μL into 150 μL blocking buffer); and • Added equal volume of standard curve samples to non-conditioned media with 1% DMSO.
Overnight Sample Incubation: • Aspirated blocking buffer from blocked plate; • Added 100 μL of samples to wells of plate (samples will be 50% media with 1% DMSO and 50% blocking buffer; and • Incubated overnight at 4° C. sealed.
Addition of Detection Antibody: • Aspirated off samples, wash 2× with 250 μL blocking buffer; and • Added 100 μL detection antibody labeled with HRP at 0.25 ug/mL in blocking buffer for 4 hours at room temperature sealed.
Final Wash and Readout: • Aspirated wells, wash 5× with 250 μL of PBS-T (2 minutes each wash at 30 RPM); • Added 100 μL TMB for 20 minutes; • Added 100 μL of 1M H3PO4; and • Read at 450 nm.
Coating Buffer (100 mM NaHCO3 pH 8.2)
PBS-T (PBS with 0.05% Tween-20)
Blocking Buffer (1% BSA in PBS-T)

Row | SMILES | IC50 [µM] | inhibition at 10 µM (Aβ-42, 10 umol/L, read-out: % Inhibition (range)) [%] | inhibition at 100 µM (Aβ-42, 100 umol/L, read-out: % Inhibition (range)) [%]
1 | CC(=O)O[C@@H]([C@H]1C[C@@H](C)C2=C(O1)[C@H](O)[C@@]1(C)[C@@H]3CC[C@H]4C(C)(C)[C@@H](O[C@@H]5OC[C@@H](O)[C@H](O)[C@H]5O)CC[C@@]45C[C@@]35CC[C@]21C)C(C)(C)O | ≤ 1 |  | 
2 | C[C@@H]1C[C@H]([C@H](O)C(C)(C)O)OC2=C1[C@@]1(C)CC[C@@]34C[C@@]35CC[C@H](O[C@@H]3OC[C@@H](O)[C@H](O)[C@H]3O)C(C)(C)[C@@H]5CC[C@H]4[C@]1(C)[C@H]2O | 1 to 10 |  | 
3 | CC(=O)O[C@@H]([C@H]1C[C@@H](C)C2=C(O1)[C@H](O)[C@@]1(C)[C@@H]3CC[C@H]4C(C)(C)[C@@H](O)CC[C@@]45C[C@@]35CC[C@]21C)C(C)(C)O | < 10 | > 75 | 
4 | CC(=O)O[C@@H]([C@H]1C[C@@H](C)C2C(O1)C(=O)[C@@]1(C)[C@@H]3CC[C@H]4C(C)(C)[C@@H](O)CC[C@@]45C[C@@]35CC[C@]21C)C(C)(C)O (some centres unmarked) | 1 to 10 |  | 
5 | C[C@@H]1C[C@H]([C@H](O)C(C)(C)O)OC2C(=O)[C@@]3(C)[C@@H]4CC[C@H]5C(C)(C)[C@@H](O[C@@H]6OC[C@@H](O)[C@H](O)[C@H]6O)CC[C@@]56C[C@@]46CC[C@]3(C)C21 (some centres unmarked) | > 10 |  | 
6 | C[C@@H]1C[C@H]([C@@H]2OCOC2(C)C)OC2C1[C@@]1(C)CC[C@@]34C[C@@]35CC[C@H](O[C@@H]3OC[C@@H](O)[C@H](O)[C@H]3O)C(C)(C)[C@@H]5CC[C@H]4[C@]1(C)[C@H]2O (some centres unmarked) | 1 to 10 |  | 
7 | C[C@@H]1C[C@H]([C@@H]2OC(=O)OC2(C)C)OC2=C1[C@@]1(C)CC[C@@]34C[C@@]35CC[C@H](O[C@@H]3OC[C@@H](O)[C@H](O)[C@H]3O)C(C)(C)[C@@H]5CC[C@H]4[C@]1(C)[C@H]2O | 1 to 10 |  | 
8 | C[C@@H]1C[C@H]([C@@H]2OC(=O)OC2(C)C)OC2C(O)[C@@]3(C)[C@@H]4CC[C@H]5C(C)(C)[C@@H](O[C@@H]6OC[C@@H](O)[C@H](O)[C@H]6O)CC[C@@]56C[C@@]46CC[C@]3(C)C21 (some centres unmarked) | 1 to 10 |  | 
9 | CC(=O)OC(C)(C)[C@@H](O)[C@H]1C[C@@H](C)C2=C(O1)[C@H](O)[C@@]1(C)[C@@H]3CC[C@H]4C(C)(C)[C@@H](OC5OC[C@@H](O)[C@H](O)[C@H]5O)CC[C@@]45C[C@@]35CC[C@]21C (some centres unmarked) | 1 to 10 |  | 
10 | CCC(=O)OC(C)(C)[C@H]1OC23O[C@@H]1C[C@@H](C)[C@@H]2[C@@]1(C)CC[C@@]24C[C@@]25CC[C@H](O[C@@H]2OC[C@@H](O)[C@H](O)[C@H]2O)C(C)(C)[C@@H]5CC[C@H]4[C@]1(C)[C@H]3O | 1 to 10 |  | 
11 | CO[C@@H]([C@H]1C[C@@H](C)C2C(O1)[C@H](O)[C@@]1(C)[C@@H]3CC[C@H]4C(C)(C)[C@@H](O[C@@H]5OC[C@@H](O)[C@H](O)[C@H]5O)CC[C@@]45C[C@@]35CC[C@]21C)C(C)(C)O (some centres unmarked) | 1 to 10 |  | 
12 | CCC(=O)O[C@@H]([C@H]1C[C@@H](C)C2C(O1)C(O)[C@@]1(C)[C@@H]3CC[C@H]4C(C)(C)[C@@H](O[C@@H]5OC[C@@H](O)[C@H](O)[C@H]5O)CC[C@@]45C[C@@]35CC[C@]21C)C(C)(C)O (some centres unmarked) | ≤ 1 |  | 25 to 75
13 | CC(=O)O[C@@H]([C@H]1C[C@@H](C)C2C(O1)C(N)[C@@]1(C)[C@@H]3CC[C@H]4C(C)(C)[C@@H](O[C@@H]5OC[C@@H](O)[C@H](O)[C@H]5O)CC[C@@]45C[C@@]35CC[C@]21C)C(C)(C)O (some centres unmarked) | 1 to 10 |  | 
14 | CC(=O)OC(C)(C)[C@@H](O)[C@H]1C[C@@H](C)C2C(O1)[C@H](O)[C@@]1(C)[C@@H]3CC[C@H]4C(C)(C)[C@@H](O[C@@H]5OC[C@@H](O)[C@H](O)[C@H]5O)CC[C@@]45C[C@@]35CC[C@]21C (some centres unmarked) | 1 to 10 |  | 
15 | COCO[C@@H]([C@H]1C[C@@H](C)C2=C(O1)[C@H](O)[C@@]1(C)[C@@H]3CC[C@H]4C(C)(C)[C@@H](O[C@@H]5OC[C@@H](O)[C@H](O)[C@H]5O)CC[C@@]45C[C@@]35CC[C@]21C)C(C)(C)O | 1 to 10 |  | 
16 | C[C@@H]1C[C@H]([C@H](O)C(C)(C)OC(=O)O)OC2C1[C@@]1(C)CC[C@@]34C[C@@]35CC[C@H](O[C@@H]3OC[C@@H](O)[C@H](O)[C@H]3O)C(C)(C)[C@@H]5CC[C@H]4[C@]1(C)[C@H]2O (some centres unmarked) | 1 to 10 |  | 
17 | C[C@@H]1C[C@H](C(=O)C(C)(C)O)OC2C1[C@@]1(C)CC[C@@]34C[C@@]35CC[C@H](O[C@@H]3OC[C@@H](O)[C@H](O)[C@H]3O)C(C)(C)[C@@H]5CC[C@H]4[C@]1(C)[C@H]2O (some centres unmarked) | > 10 |  | 

Row | SMILES | IC50 [µM] | inhibition at 10 µM (Aβ-42, 10 umol/L, read-out: % Inhibition (range)) [%] | inhibition at 100 µM (Aβ-42, 100 umol/L, read-out: % Inhibition (range)) [%]
18 | C[C@@H]1C[C@H]([C@H](OC(N)=O)C(C)(C)O)OC2C1[C@@]1(C)CC[C@@]34C[C@@]35CC[C@H](O[C@@H]3OC[C@@H](O)[C@H](O)[C@H]3O)C(C)(C)[C@@H]5CC[C@H]4[C@]1(C)[C@H]2O (some centres unmarked) | 1 to 10 |  | 
19 | COCO[C@H]1[C@H](O)COC(O[C@H]2CC[C@]34C[C@]35CC[C@]3(C)C6C(O[C@@H]([C@@H]7OC(=O)OC7(C)C)C[C@H]6C)[C@H](O)[C@@]3(C)[C@@H]5CC[C@H]4C2(C)C)[C@@H]1O (some centres unmarked) | 1 to 10 |  | 
20 | CC(=O)O[C@H]1CC[C@]23C[C@]24CC[C@]2(C)C5[C@H](C)C[C@H]([C@H](OC(C)=O)C(C)(C)O)O[C@@H]5[C@H](O)[C@@]2(C)[C@@H]4CC[C@H]3C1(C)C (some centres unmarked) | ≤ 1 |  | 
21 | CC(=O)O[C@@H]([C@H]1C[C@@H](C)C2C(O1)[C@H](O)[C@@]1(C)[C@@H]3CC[C@H]4C(C)(C)[C@@H](OC(CO)OCCO)CC[C@@]45C[C@@]35CC[C@]21C)C(C)(C)O (some centres unmarked) | ≤ 1 |  | 
22 | CC(=O)O[C@@H]([C@H]1C[C@@H](C)C2C(O1)[C@H](O)[C@@]1(C)[C@@H]3CC[C@H]4C(C)(C)[C@@H](OC(=O)CCC(=O)O)CC[C@@]45C[C@@]35CC[C@]21C)C(C)(C)O (some centres unmarked) | 1 to 10 |  | 
23 | CC(=O)O[C@@H]([C@H]1C[C@@H](C)C2=C(O1)[C@H](O)[C@@]1(C)[C@@H]3CC[C@H]4C(C)(C)[C@@H](O[C@H]5CN(O)CCO5)CC[C@@]45C[C@@]35CC[C@]21C)C(C)(C)O | ≤ 1 |  | 
24 | CC(=O)O[C@@H]([C@H]1C[C@@H](C)C2C(O1)[C@H](O)[C@@]1(C)[C@@H]3CC[C@H]4C(C)(C)[C@@H](O[C@H]5CN(O)CCO5)CC[C@@]45C[C@@]35CC[C@]21C)C(C)(C)O (some centres unmarked) | ≤ 1 |  | 
25 | CC(=O)O[C@@H]([C@H]1C[C@@H](C)C2C(O1)[C@H](O)[C@@]1(C)[C@@H]3CC[C@H]4C(C)(C)[C@@H](OCC(=O)O)CC[C@@]45C[C@@]35CC[C@]21C)C(C)(C)O (some centres unmarked) | 1 to 10 |  | 
26 | CC(=O)O[C@@H]([C@H]1C[C@@H](C)C2C(O1)[C@H](O)[C@@]1(C)[C@@H]3CC[C@H]4C(C)(C)[C@@H](O[C@H]5CN(C)CCO5)CC[C@@]45C[C@@]35CC[C@]21C)C(C)(C)O (some centres unmarked) | ≤ 1 |  | 
27 | CN[C@H]1CC[C@]23C[C@]24CC[C@]2(C)C5C(O[C@@H]([C@H](OC(C)=O)C(C)(C)O)C[C@H]5C)[C@H](O)[C@@]2(C)[C@@H]4CC[C@H]3C1(C)C (some centres unmarked) | 1 to 10 |  | 
28 | CC(=O)O[C@@H]([C@H]1C[C@@H](C)C2C(O1)[C@H](O)[C@@]1(C)[C@@H]3CC[C@H]4C(C)(C)[C@@H](O[C@H]5CNCCO5)CC[C@@]45C[C@@]35CC[C@]21C)C(C)(C)O (some centres unmarked) | ≤ 1 |  | 
29 | CC(=O)O[C@@H]([C@H]1C[C@@H](C)C2C(O1)[C@H](O)[C@@]1(C)[C@@H]3CC[C@H]4C(C)(C)[C@H](NO)CC[C@@]45C[C@@]35CC[C@]21C)C(C)(C)O (some centres unmarked) | 1 to 10 |  | 
30 | COCCN[C@H]1CC[C@]23C[C@]24CC[C@]2(C)C5C(O[C@@H]([C@H](OC(C)=O)C(C)(C)O)C[C@H]5C)[C@H](O)[C@@]2(C)[C@@H]4CC[C@H]3C1(C)C (some centres unmarked) | 1 to 10 |  | 
31 | COCCN1CCOC(O[C@H]2CC[C@]34C[C@]35CC[C@]3(C)C6C(O[C@@H]([C@H](OC(C)=O)C(C)(C)O)C[C@H]6C)[C@H](O)[C@@]3(C)[C@@H]5CC[C@H]4C2(C)C)C1 (some centres unmarked) | ≤ 1 |  | 
32 | CC(=O)O[C@@H]([C@H]1C[C@@H](C)C2C(O1)[C@H](O)[C@@]1(C)[C@@H]3CC[C@H]4C(C)(C)[C@@H](OC5CN(C6CCCC6)CCO5)CC[C@@]45C[C@@]35CC[C@]21C)C(C)(C)O (some centres unmarked) | ≤ 1 |  | 
33 | CC(=O)O[C@@H]([C@H]1C[C@@H](C)C2C(O1)[C@H](O)[C@@]1(C)[C@@H]3CC[C@H]4C(C)(C)[C@@H](OC5CN(CCN6CCOCC6)CCO5)CC[C@@]45C[C@@]35CC[C@]21C)C(C)(C)O (some centres unmarked) | ≤ 1 |  | 
